Test results: publication PMC12888861, “Antibacterial activity of enmetazobactam against Acinetobacter spp.: a molecular dissection of mechanism of action and resistance determinants” (Antimicrobial Agents and Chemotherapy, 2025)
Like-named read-outs stand apart in the source and are kept apart here.

System: A. non-baumannii isolates (n = 87)
Test: MIC, broth microdilution (EUCAST), A. non-baumannii isolates
Type: cell-based, Acinetobacter spp. (non-baumannii)
Details: for MIC: in combinations ETZ fixed at 8 mg/L
Source text: The bacterial strains used in this study comprised 208 clinical isolates from the Spanish National Acinetobacter spp. 2020 Multicenter Collection, which was previously characterized in detail by our research group, including whole-genome sequencing, phylogenetics studies, clonal dynamics, and resistance mechanisms ([2], [29]). Additionally, a collection of A. baumannii ATCC 17978 transformants coding the blaOXA-23, blaOXA-24/40, blaOXA-51, blaOXA-58, blaOXA-143, and blaOXA-201 genes, previously constructed and described by our group ([30]), was used to determine the activity of enmetazobactam against strains carrying the main CHDLs of A. baumannii.
The antimicrobial susceptibility of the 208 Acinetobacter spp. isolates was assessed using the broth microdilution method, as described in the European Committee on Antimicrobial Susceptibility Testing (EUCAST) v.15 guidelines (http://www.eucast.org/clinical_breakpoints). […] MICs for enmetazobactam alone were assessed as well. […] Subsequently, MIC testing was also conducted with a collection of A. baumannii ATCC 17978 transformants expressing clinically relevant OXA-like carbapenemase genes.
The A. baumannii ATCC 19606 strain was used as the reference strain in all susceptibility experiments, in duplicate assays. Antibiotics were purchased from Sigma-Aldrich, except enmetazobactam and durlobactam, which were obtained from Advanz Pharma and MedChemExpress, respectively.

[1] = Acinetobacter, A. non-baumannii isolates (n=87), ETZ fixed 8 mg/L in combinations

## C[C@@H](O)[C@H]1C(=O)N2C(C(=O)O)=C(SCCN=CN)C[C@H]12 [imipenem]
  MIC distribution 0.12: 71.3
Acinetobacter baylyi, isolate NO-Ab27, Acinetobacter baylyi, read-out: MIC
  MIC: 0.12 µg/mL
Acinetobacter beijerinckii, isolate NO-Ab122, Acinetobacter beijerinckii, read-out: MIC
  MIC: 0.12 µg/mL
Acinetobacter bereziniae, isolate NO-Ab70, Acinetobacter bereziniae, read-out: MIC
  MIC: 0.12 µg/mL
Acinetobacter bereziniae, isolate NO-Ab84, Acinetobacter bereziniae, read-out: MIC
  MIC: 0.12 µg/mL
Acinetobacter bereziniae, isolate NO-Ab104, Acinetobacter bereziniae, read-out: MIC
  MIC: 0.12 µg/mL
Acinetobacter bereziniae, isolate NO-Ab114, Acinetobacter bereziniae, read-out: MIC
  MIC: 0.12 µg/mL
Acinetobacter bereziniae, isolate NO-Ab115, Acinetobacter bereziniae, read-out: MIC
  MIC: 0.25 µg/mL
Acinetobacter bereziniae, isolate NO-Ab116, Acinetobacter bereziniae, read-out: MIC
  MIC: 0.25 µg/mL
Acinetobacter bereziniae, isolate NO-Ab117, Acinetobacter bereziniae, read-out: MIC
  MIC: 0.12 µg/mL
Acinetobacter bereziniae, isolate NO-Ab129, Acinetobacter bereziniae, read-out: MIC
  MIC: 0.25 µg/mL
Acinetobacter bereziniae, isolate NO-Ab156, Acinetobacter bereziniae, read-out: MIC
  MIC: 0.12 µg/mL
Acinetobacter calcoaceticus, isolate NO-Ab85, Acinetobacter calcoaceticus, read-out: MIC
  MIC: 0.12 µg/mL
Acinetobacter calcoaceticus, isolate NO-Ab94, Acinetobacter calcoaceticus, read-out: MIC
  MIC: ≤ 0.06 µg/mL
Acinetobacter calcoaceticus, isolate NO-Ab108, Acinetobacter calcoaceticus, read-out: MIC
  MIC: ≤ 0.06 µg/mL
Acinetobacter calcoaceticus, isolate NO-Ab161, Acinetobacter calcoaceticus, read-out: MIC
  MIC: 0.12 µg/mL
Acinetobacter calcoaceticus, isolate NO-Ab198, Acinetobacter calcoaceticus, read-out: MIC
  MIC: ≤ 0.06 µg/mL
Acinetobacter calcoaceticus, isolate NO-Ab205, Acinetobacter calcoaceticus, read-out: MIC
  MIC: 0.25 µg/mL
Acinetobacter calcoaceticus, isolate NO-Ab211, Acinetobacter calcoaceticus, read-out: MIC
  MIC: 0.12 µg/mL
Acinetobacter courvalinii, isolate NO-Ab216, Acinetobacter courvalinii, read-out: MIC
  MIC: 0.5 µg/mL
Acinetobacter dispersus, isolate NO-Ab2, Acinetobacter dispersus, read-out: MIC
  MIC: ≤ 0.06 µg/mL
Acinetobacter guillouiae, isolate NO-Ab69, Acinetobacter guillouiae, read-out: MIC
  MIC: ≤ 0.06 µg/mL
Acinetobacter guillouiae, isolate NO-Ab74, Acinetobacter guillouiae, read-out: MIC
  MIC: 0.25 µg/mL
Acinetobacter haemolyticus, isolate NO-Ab92, Acinetobacter haemolyticus
  MIC: 0.12 µg/mL
Acinetobacter haemolyticus, isolate NO-Ab177, Acinetobacter haemolyticus
  MIC: 0.12 µg/mL
Acinetobacter haemolyticus, isolate NO-Ab217, Acinetobacter haemolyticus
  MIC: 0.12 µg/mL
Acinetobacter johnsonii, isolate NO-Ab101, Acinetobacter johnsonii, read-out: MIC
  MIC: 0.12 µg/mL
Acinetobacter junii, isolate NO-Ab76, Acinetobacter junii, read-out: MIC
  MIC: ≤ 0.06 µg/mL
Acinetobacter junii, isolate NO-Ab77, Acinetobacter junii, OXA-24/40, read-out: MIC
  MIC: 32 µg/mL
Acinetobacter lactucae, isolate NO-Ab60, Acinetobacter dijkshoorniae, read-out: MIC
  MIC: 0.25 µg/mL
Acinetobacter lactucae, isolate NO-Ab63, Acinetobacter dijkshoorniae, read-out: MIC
  MIC: 0.25 µg/mL
Acinetobacter lactucae, isolate NO-Ab65, Acinetobacter dijkshoorniae, read-out: MIC
  MIC: 0.25 µg/mL
Acinetobacter lactucae, isolate NO-Ab86, Acinetobacter dijkshoorniae, read-out: MIC
  MIC: 0.12 µg/mL
Acinetobacter lactucae, isolate NO-Ab88, Acinetobacter dijkshoorniae, read-out: MIC
  MIC: 0.12 µg/mL
Acinetobacter lactucae, isolate NO-Ab91, Acinetobacter dijkshoorniae, read-out: MIC
  MIC: 0.12 µg/mL
Acinetobacter lactucae, isolate NO-Ab121, Acinetobacter dijkshoorniae, read-out: MIC
  MIC: 0.12 µg/mL
Acinetobacter lactucae, isolate NO-Ab125, Acinetobacter dijkshoorniae, read-out: MIC
  MIC: ≤ 0.06 µg/mL
Acinetobacter lactucae, isolate NO-Ab160, Acinetobacter dijkshoorniae, read-out: MIC
  MIC: 0.12 µg/mL
Acinetobacter nosocomialis, isolate NO-Ab43, Acinetobacter nosocomialis, read-out: MIC
  MIC: ≤ 0.06 µg/mL
Acinetobacter nosocomialis, isolate NO-Ab68, Acinetobacter nosocomialis, OXA-24/40, read-out: MIC
  MIC: 32 µg/mL
Acinetobacter nosocomialis, isolate NO-Ab98, Acinetobacter nosocomialis, read-out: MIC
  MIC: 0.12 µg/mL
Acinetobacter nosocomialis, isolate NO-Ab208, Acinetobacter nosocomialis, read-out: MIC
  MIC: 0.12 µg/mL
Acinetobacter pittii, isolate NO-Ab59, Acinetobacter pittii, read-out: MIC
  MIC: 0.25 µg/mL
Acinetobacter pittii, isolate NO-Ab66, Acinetobacter pittii, read-out: MIC
  MIC: 0.25 µg/mL
Acinetobacter pittii, isolate NO-Ab73, Acinetobacter pittii, read-out: MIC
  MIC: ≤ 0.06 µg/mL
Acinetobacter pittii, isolate NO-Ab75, Acinetobacter pittii, read-out: MIC
  MIC: 0.25 µg/mL
Acinetobacter pittii, isolate NO-Ab78, Acinetobacter pittii, read-out: MIC
  MIC: ≤ 0.06 µg/mL
Acinetobacter pittii, isolate NO-Ab82, Acinetobacter pittii, read-out: MIC
  MIC: ≤ 0.06 µg/mL
Acinetobacter pittii, isolate NO-Ab89, Acinetobacter pittii, read-out: MIC
  MIC: 0.12 µg/mL
Acinetobacter pittii, isolate NO-Ab90, Acinetobacter pittii, read-out: MIC
  MIC: ≤ 0.06 µg/mL
Acinetobacter pittii, isolate NO-Ab97, Acinetobacter pittii, read-out: MIC
  MIC: ≤ 0.06 µg/mL
Acinetobacter pittii, isolate NO-Ab105, Acinetobacter pittii, read-out: MIC
  MIC: 0.12 µg/mL
Acinetobacter pittii, isolate NO-Ab106, Acinetobacter pittii, read-out: MIC
  MIC: ≤ 0.06 µg/mL
Acinetobacter pittii, isolate NO-Ab107, Acinetobacter pittii, read-out: MIC
  MIC: ≤ 0.06 µg/mL
Acinetobacter pittii, isolate NO-Ab111, Acinetobacter pittii, read-out: MIC
  MIC: 0.12 µg/mL
Acinetobacter pittii, isolate NO-Ab113, Acinetobacter pittii, read-out: MIC
  MIC: 0.25 µg/mL
Acinetobacter pittii, isolate NO-Ab118, Acinetobacter pittii, read-out: MIC
  MIC: 0.12 µg/mL
Acinetobacter pittii, isolate NO-Ab135, Acinetobacter pittii, read-out: MIC
  MIC: 0.12 µg/mL
Acinetobacter pittii, isolate NO-Ab145, Acinetobacter pittii, read-out: MIC
  MIC: 0.12 µg/mL
Acinetobacter pittii, isolate NO-Ab151, Acinetobacter pittii, read-out: MIC
  MIC: 0.25 µg/mL
Acinetobacter pittii, isolate NO-Ab154, Acinetobacter pittii, read-out: MIC
  MIC: 0.25 µg/mL
Acinetobacter pittii, isolate NO-Ab157, Acinetobacter pittii, read-out: MIC
  MIC: 0.25 µg/mL
Acinetobacter pittii, isolate NO-Ab162, Acinetobacter pittii, read-out: MIC
  MIC: 0.12 µg/mL
Acinetobacter pittii, isolate NO-Ab164, Acinetobacter pittii, read-out: MIC
  MIC: ≤ 0.06 µg/mL
Acinetobacter pittii, isolate NO-Ab178, Acinetobacter pittii, read-out: MIC
  MIC: 0.12 µg/mL
Acinetobacter pittii, isolate NO-Ab197, Acinetobacter pittii, read-out: MIC
  MIC: 0.12 µg/mL
Acinetobacter proteolyticus, isolate NO-Ab99, Acinetobacter proteolyticus, read-out: MIC
  MIC: 0.25 µg/mL
Acinetobacter proteolyticus, isolate NO-Ab102, Acinetobacter proteolyticus, read-out: MIC
  MIC: 0.25 µg/mL
Acinetobacter proteolyticus, isolate NO-Ab210, Acinetobacter proteolyticus, read-out: MIC
  MIC: ≤ 0.06 µg/mL
Acinetobacter radioresistens, isolate NO-Ab175, Acinetobacter radioresistens, read-out: MIC
  MIC: 0.25 µg/mL
Acinetobacter radioresistens, isolate NO-Ab215, Acinetobacter radioresistens, read-out: MIC
  MIC: 0.12 µg/mL
Acinetobacter ursingii, isolate NO-Ab3, Acinetobacter ursingii, read-out: MIC
  MIC: ≤ 0.06 µg/mL
Acinetobacter ursingii, isolate NO-Ab64, Acinetobacter ursingii, read-out: MIC
  MIC: ≤ 0.06 µg/mL
Acinetobacter ursingii, isolate NO-Ab87, Acinetobacter ursingii, read-out: MIC
  MIC: ≤ 0.06 µg/mL
Acinetobacter ursingii, isolate NO-Ab103, Acinetobacter ursingii, read-out: MIC
  MIC: ≤ 0.06 µg/mL
Acinetobacter ursingii, isolate NO-Ab119, Acinetobacter ursingii, read-out: MIC
  MIC: 0.25 µg/mL
Acinetobacter ursingii, isolate NO-Ab120, Acinetobacter ursingii, read-out: MIC
  MIC: ≤ 0.06 µg/mL
Acinetobacter ursingii, isolate NO-Ab123, Acinetobacter ursingii, read-out: MIC
  MIC: ≤ 0.06 µg/mL
Acinetobacter ursingii, isolate NO-Ab126, Acinetobacter ursingii, read-out: MIC
  MIC: 0.12 µg/mL
Acinetobacter ursingii, isolate NO-Ab147, Acinetobacter ursingii, read-out: MIC
  MIC: 0.25 µg/mL
Acinetobacter ursingii, isolate NO-Ab155, Acinetobacter ursingii, read-out: MIC
  MIC: 0.25 µg/mL
Acinetobacter ursingii, isolate NO-Ab165, Acinetobacter ursingii, read-out: MIC
  MIC: 0.12 µg/mL
Acinetobacter ursingii, isolate NO-Ab166, Acinetobacter ursingii, read-out: MIC
  MIC: ≤ 0.06 µg/mL
Acinetobacter ursingii, isolate NO-Ab214, Acinetobacter ursingii, read-out: MIC
  MIC: ≤ 0.06 µg/mL
Acinetobacter ursingii, isolate NO-Ab221, Acinetobacter ursingii, read-out: MIC
  MIC: ≤ 0.06 µg/mL
Acinetobacter ursingii, isolate NO-Ab222, Acinetobacter ursingii, read-out: MIC
  MIC: ≤ 0.06 µg/mL
Acinetobacter, isolate NO-Ab146, Acinetobacter iwoffii, read-out: MIC
  MIC: 0.25 µg/mL
Acinetobacter, isolate NO-Ab159, Acinetobacter iwoffii, read-out: MIC
  MIC: ≤ 0.06 µg/mL
[1]
  MIC50: 0.12 µg/mL
  MIC90: 0.25 µg/mL
Cumulative share of A. non-baumannii isolates (n=87) at MIC 0.25 mg/L, ETZ fixed 8 mg/L in combinations
  MIC distribution 0.25: 96.6
Cumulative share of A. non-baumannii isolates (n=87) at MIC 0.5 mg/L, ETZ fixed 8 mg/L in combinations
  MIC distribution 0.5: 97.7
Cumulative share of A. non-baumannii isolates (n=87) at MIC 1 mg/L, ETZ fixed 8 mg/L in combinations
  MIC distribution 1: 97.7
Cumulative share of A. non-baumannii isolates (n=87) at MIC 2 mg/L, ETZ fixed 8 mg/L in combinations
  MIC distribution 2: 97.7
Cumulative share of A. non-baumannii isolates (n=87) at MIC 4 mg/L, ETZ fixed 8 mg/L in combinations
  MIC distribution 4: 97.7
Cumulative share of A. non-baumannii isolates (n=87) at MIC 8 mg/L, ETZ fixed 8 mg/L in combinations
  MIC distribution 8: 97.7
Cumulative share of A. non-baumannii isolates (n=87) at MIC 16 mg/L, ETZ fixed 8 mg/L in combinations
  MIC distribution 16: 97.7
Cumulative share of A. non-baumannii isolates (n=87) at MIC 32 mg/L, ETZ fixed 8 mg/L in combinations
  MIC distribution 32: 100
Cumulative share of A. non-baumannii isolates (n=87) at MIC ≤0.06 mg/L, ETZ fixed 8 mg/L in combinations
  MIC distribution ≤0.06: 32.2
